From US8536407B2, “Heat resistant plants and plant tissues comprising a variant adenosine diphosphate glucose pyrophosphorylase small subunit protein and methods of use thereof” (University of Florida Research Foundation, Inc., priority 2008, dated 2013)
Entries after “also recorded” stand apart in the source; their conditions may differ. Read-outs that look alike come from different tables or passages of the source.

Experiments:
[1] = target: T1, maize endosperm ADP-glucose pyrophosphorylase (AGPase) variant BT2-TI/SH2, small subunit BT2 with Thr462 to Ile (TI, SEQ ID NO:2) complexed with wild type SH2 (Zea mays, UniProt P55241+Q947C0, T462I); assay: Kinetic and allosteric characterization of purified recombinant AGPase, forward direction (BT2-TI/SH2); type: biochemical
T1 sequence (Q947C0 1-475 T462I): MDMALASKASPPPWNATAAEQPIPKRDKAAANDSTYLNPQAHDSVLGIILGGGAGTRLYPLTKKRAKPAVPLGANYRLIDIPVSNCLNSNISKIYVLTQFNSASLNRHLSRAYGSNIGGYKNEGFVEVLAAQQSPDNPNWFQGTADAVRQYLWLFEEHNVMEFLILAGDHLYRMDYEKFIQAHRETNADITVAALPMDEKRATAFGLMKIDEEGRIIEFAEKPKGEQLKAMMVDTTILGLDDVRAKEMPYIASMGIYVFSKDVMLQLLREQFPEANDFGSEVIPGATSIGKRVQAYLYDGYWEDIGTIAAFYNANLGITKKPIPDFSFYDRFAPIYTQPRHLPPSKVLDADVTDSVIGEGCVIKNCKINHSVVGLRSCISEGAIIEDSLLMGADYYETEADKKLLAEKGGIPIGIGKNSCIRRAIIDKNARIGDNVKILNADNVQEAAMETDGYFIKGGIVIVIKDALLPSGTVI
T1 sequence (P55241 46-516): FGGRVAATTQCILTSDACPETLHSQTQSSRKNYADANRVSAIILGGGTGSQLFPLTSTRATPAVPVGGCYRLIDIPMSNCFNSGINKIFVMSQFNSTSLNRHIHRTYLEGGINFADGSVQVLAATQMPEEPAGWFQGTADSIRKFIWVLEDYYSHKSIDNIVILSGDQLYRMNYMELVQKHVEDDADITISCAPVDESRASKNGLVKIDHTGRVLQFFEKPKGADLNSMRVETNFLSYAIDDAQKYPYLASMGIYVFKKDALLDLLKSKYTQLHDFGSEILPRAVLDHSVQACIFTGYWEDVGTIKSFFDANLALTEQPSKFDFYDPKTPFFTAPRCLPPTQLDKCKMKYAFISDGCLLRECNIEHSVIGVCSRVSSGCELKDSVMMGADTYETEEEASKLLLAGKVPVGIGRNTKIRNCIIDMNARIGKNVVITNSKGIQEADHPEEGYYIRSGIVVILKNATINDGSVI
Description: (§1) The following steps were conducted at 4° C.
(§2) The reaction was stopped by boiling for 2 min. […] NADH concentration was estimated by absorbance at 340 nm.
A mutant Bt2 library was created by error-prone PCR. The mutational load was ˜2 non-synonymous mutations per clone (Georgelis et al. 2007). The mutants were expressed in E. coli along with a wildtype Sh2 gene. Approximately 50,000 colonies were screened for glycogen production. Ten dark staining colonies were picked. The two darkest staining Bt2 mutants were sequenced. Both had the same non-synonymous mutation resulting in a change of amino acid 462 from threonine to isoleucine (TI). The threonine in that position is absolutely conserved among the higher plant small subunits (data not shown).
Ki's are expressed as mean (95% confidence interval). All other values are expressed as mean±standard deviation.

[2] = system: ADP-glucose pyrophosphorylase (AGPase) variant MP-TI/SH2, maize/potato mosaic small subunit MP with the TI mutation (threonine to isoleucine at position …); assay: Kinetic and allosteric characterization of purified recombinant AGPase, forward direction (MP-TI/SH2); type: biochemical, maize (Zea mays) / potato tuber
Description: as §1, §2
(§3) All other values are expressed as mean±standard deviation.

[3] = system: ADP-glucose pyrophosphorylase (AGPase) MP/SH2, mosaic small subunit MP (first 200 amino acids of maize BT2 and last 275 amino acids of potato tuber small …); conditions: MP/SH2 compared to wildtype BT2/SH2; Cross et al., 2004; Boehlein et al., 2005; cited from earlier work
[4] = target: T2, maize endosperm ADP-glucose pyrophosphorylase (AGPase) BT2/SH2, wild type small subunit BT2 complexed with wild type large subunit SH2 (Zea mays, UniProt P55241+Q947C0); assay: Kinetic and allosteric characterization of purified recombinant AGPase, forward direction (BT2/SH2); type: biochemical
T2 sequence (Q947C0 1-475): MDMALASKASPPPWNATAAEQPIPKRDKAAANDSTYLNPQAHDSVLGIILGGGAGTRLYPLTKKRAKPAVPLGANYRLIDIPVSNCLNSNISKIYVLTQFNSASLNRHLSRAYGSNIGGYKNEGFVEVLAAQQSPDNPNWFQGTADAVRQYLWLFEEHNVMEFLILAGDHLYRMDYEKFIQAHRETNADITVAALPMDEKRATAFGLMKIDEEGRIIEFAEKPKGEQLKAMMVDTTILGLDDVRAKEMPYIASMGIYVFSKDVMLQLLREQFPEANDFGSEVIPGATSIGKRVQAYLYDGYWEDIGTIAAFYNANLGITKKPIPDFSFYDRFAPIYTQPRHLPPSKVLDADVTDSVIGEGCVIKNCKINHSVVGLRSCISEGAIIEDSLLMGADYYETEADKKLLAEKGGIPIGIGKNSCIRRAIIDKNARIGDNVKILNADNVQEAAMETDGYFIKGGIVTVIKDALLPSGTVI
T2 sequence (P55241 46-516): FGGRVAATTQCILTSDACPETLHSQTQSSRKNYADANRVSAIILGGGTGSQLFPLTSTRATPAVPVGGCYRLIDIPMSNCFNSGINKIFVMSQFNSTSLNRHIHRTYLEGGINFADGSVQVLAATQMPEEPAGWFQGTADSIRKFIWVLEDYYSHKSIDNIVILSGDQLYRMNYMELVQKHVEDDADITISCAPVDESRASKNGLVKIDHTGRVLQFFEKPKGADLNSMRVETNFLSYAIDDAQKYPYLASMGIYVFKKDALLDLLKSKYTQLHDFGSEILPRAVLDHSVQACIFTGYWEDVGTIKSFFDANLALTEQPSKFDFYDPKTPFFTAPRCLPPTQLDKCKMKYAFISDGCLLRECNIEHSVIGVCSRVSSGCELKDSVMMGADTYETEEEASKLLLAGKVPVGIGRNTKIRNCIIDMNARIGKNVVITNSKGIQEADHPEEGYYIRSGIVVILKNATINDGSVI
Description: as §1, §2, §3

[5] = system: ADP-glucose pyrophosphorylase (AGPase) MP/SH2, mosaic small subunit MP (first 200 amino acids of maize BT2 and last 275 amino acids of potato tuber small …)
Description: AGPase was desalted by using Zeba Micro Desalt Spin Columns (Pierce) before assaying. AGPase was exchanged into 50 mM HEPES, 5 mM MgCl2, 0.5 mM EDTA and 0.5 mg/mL BSA (for stability).
The reaction was stopped by boiling for 2 min. PPi was estimated by coupling the reaction to a reduction in NADH concentration using 300 μl of coupling reagent. The coupling reagent contained 25 mM imidazole pH 7.4, 4 mM MgCl2, 1 mM EDTA, 0.2 mM NADH, 0.725U aldolase, 0.4U triose phosphate isomerase, 0.6U glycerophosphate dehydrogenase, 1 mM fructose 6-phosphate and 0.8 μg of pyrophosphate dependent phosphofructokinase (PPi-PFK). […] NADH concentration was estimated by absorbance at 340 nm. PPi concentration was calculated by a standard curve developed by using various amounts of PPi instead of AGPase. […] The kinetic constants of AGPase were calculated by Prism 4.0 (Graph Pad, San Diego Calif.).
All other values are expressed as mean±standard deviation. The specific activity of AGPase in the absence of 3-PGA is expressed as a percentage of the specific activity in the presence of 10 mM of 3-PGA (mean±standard error).

[6] = specific activity in absence of 3-PGA as percentage of that with 10 mM 3-PGA, mean±standard error
[7] = 1 mM ATP, 2 mM G-1-P, 2.5 mM 3-PGA, mean (95% confidence interval), read-out: Ki Pi

For `O=C(O)[C@H](O)COP(=O)(O)O` [3-PGA], the “Ka for 3-PGA (compared with BT2/SH2, in words)” value ([1]; BT2-TI/SH2 versus BT2/SH2) is listed as “indistinguishable from BT2/SH2”, the “Vmax − 3-PGA/Vmax + 3-PGA” value [2, 6] is listed as “(24.4 ± 5.3%)” and the “affinity for 3-PGA (in words)” value [3] is listed as “increased affinity for 3-PGA”. The “Vmax − 3-PGA/Vmax + 3-PGA” value [4, 6] was “(7.2 ± 3.2%)”, the “Vmax − 3-PGA/Vmax + 3-PGA” value ([5]; MP/SH2, specific activity in absence of 3-PGA as percentage of that with 10 mM 3-PGA, mean±standard error) was “(28.2 ± 3.1%)” and the “affinity for 3-PGA (in words)” value ([5]; MP/SH2 compared to BT2/SH2) was “increased affinity for 3-PGA; also recorded: a higher affinity for 3-PGA”.
For `O=P(O)(O)O[C@H]1O[C@H](CO)[C@@H](O)[C@H](O)[C@H]1O` [G-1-P, glucose-1-P], the “Km (compared with BT2/SH2, in words)” value ([1]; BT2-TI/SH2 versus BT2/SH2) was “indistinguishable from BT2/SH2”, the Km ([2]; read-out: Km G-1-P, forward direction, pH 7.4, 37° C., varying G-1-P, mean±standard deviation) was 59 µM and the “kcat (G-1-P)” value ([2]; varying G-1-P, ATP saturating (1 mM), mean±standard deviation) was 42.880 s⁻¹. The “kcat (G-1-P)” value ([5]; MP/SH2, varying G-1-P, ATP saturating (1 mM), mean±standard deviation) was 62.655 s⁻¹ and the Km ([5]; read-out: Km G-1-P, MP/SH2, forward direction, pH 7.4, 37° C., varying G-1-P, mean±standard deviation) was 79 µM.
In the case of `O=P(O)(O)O` [Pi, inorganic phosphate], the Ki ([1]; BT2-TI/SH2, 1 mM ATP, 2 mM G-1-P, 2.5 mM 3-PGA, mean (95% confidence interval), read-out: Ki Pi) is reported as 4.07 mM, the “Ki for Pi (compared with BT2/SH2, in words)” value ([1]; BT2-TI/SH2 versus BT2/SH2) is reported as “indistinguishable from BT2/SH2” and the Ki [2, 7] is reported as 5.87 mM. The Ki [4, 7] was 2.32 mM, the “affinity for Pi (in words)” value ([5]; MP/SH2 compared to BT2/SH2) was “decreased affinity for Pi; also recorded: a lower affinity for the inhibitor Pi” and the Ki ([5]; read-out: Ki Pi, MP/SH2, 1 mM ATP, 2 mM G-1-P, 2.5 mM 3-PGA, mean (95% confidence interval)) was 6.61 mM.
